From patent EP1113802B1, “ANTIVIRAL COMBINATIONS OF […] ADEFOVIR” (priority 1998, dated 2000)
Read-outs that look alike come from different tables or passages of the source.

Columns and labels:
[1] = system: HBV; details: to the end of the second year of a two year study; cited from earlier work
[2] = system: WT HBV produced by the 2.2.15 cells; test: PMEA inhibition of HBV DNA production in 2.2.15 stable HBV-producer cells; assay type: cell-based; details: Hepatitis B virus, 168 h, HBV DNA in media on day 7, read-out: IC50 PMEA (95%Cl)
Method: (§1) The human hepatobtastoma cell line (Hep-G2-2.2.15) which constitutively produces infectious HBV was seeded into 96 well microtiter plates at a density of 5 x 10^3 cells per well. These cells were treated with a combination of lamivudine and PMEA on triplicate plates. Culture media containing drugs was replenished every other day for 9 days, at which time supernatants were collected and analyzed for HBV content. The lamivudine/PMEA combination was tested twice in triplicate in matrix fashion. […] Data were normalised to values obtained with non-drug treated cells, and expressed as a percent of control for analysis. […] Briefly, HBV detection was performed by "capturing" virus from supernatants on Anti-HBsAg coated plates, washing, denaturing to release HBV DNA, performing PCR with biotinylated primers, streptavidin capture of biotinylated PCR products with concomitant probe hybridization, addition of substrate, and reading optical densities of the colorimetric reaction. Dilutions of a standardized HBV-containing supernatant were included on every plate, and HBV DNA concentrations of test wells were calculated from this HBV standard curve. The useful range of detection is at least .045 to 45 fg of HBV DNA, where 30 copies of the genome can be reliably detected. […]

[3] = system: WT HBV produced by the 2.2.15 cells; details: Heijtink et al. 1993, read-out: IC50 of PMEA, literature value using the same cell line; cited from earlier work
[4] = system: HBV L528M/ M552V; test: PMEA inhibition of HBV DNA production, HepG2 cells transiently transfected with HBV genome plasmid; assay type: cell-based, hepatitis B virus
Method: (§2) The human hepatobtastoma cell line (Hep-G2-2.2.15) which constitutively produces infectious HBV was seeded into 96 well microtiter plates at a density of 5 x 10^3 cells per well. These cells were treated with a combination of lamivudine and PMEA on triplicate plates. Culture media containing drugs was replenished every other day for 9 days, at which time supernatants were collected and analyzed for HBV content. The lamivudine/PMEA combination was tested twice in triplicate in matrix fashion. Experiment 1 utilised a lamivudine range of 100 nM to 0.14 nM (3-fold dilutions in columns), and PMEA, 9-[(R)-2-(phosphonomethoxy)ethyl]adenine (adefovir), at concentrations of 1 µM to 10 nM (3.16 fold dilutions in rows). Experiment 2 was performed with dilutions of Lamivudine ranging from 100nM to .045 nM (in 3-fold dilutions in columns), and a PMEA range of 5 µM to 0.16 nM (3.16 fold dilutions in rows). Both drugs were diluted in a separate 96 well microtiter plate, and subsequently transferred onto plates containing the cell monolayers. Cells are grown in 150 µl RPMI 1640 supplemented with 2 mM L-Glutamine and 10% fetal bovine serum. Prior to transfer of drug, 120 µl of media was removed from the cells, leaving 30 µl on the monolayers to prevent drying. 90 µl of fresh media without drug was added, followed by the addition of 30 µl of 5X drug dilutions. Lamivudine and PMEA were each tested on their respective plates individually at the same concentrations. Data were normalised to values obtained with non-drug treated cells, and expressed as a percent of control for analysis. The method used for detection of HBV has been previously described (Jansen RW, Johnson LC, Averett, DR. High-Capacity in vitro assessment of anti-hepatitis B virus compound selectivity by a virion-specific polymerase chain reaction assay. Antimicrob Agents Chem 1993; 37 (3): 441-447.). Briefly, HBV detection was performed by "capturing" virus from supernatants on Anti-HBsAg coated plates, washing, denaturing to release HBV DNA, performing PCR with biotinylated primers, streptavidin capture of biotinylated PCR products with concomitant probe hybridization, addition of substrate, and reading optical densities of the colorimetric reaction. Dilutions of a standardized HBV-containing supernatant were included on every plate, and HBV DNA concentrations of test wells were calculated from this HBV standard curve. The useful range of detection is at least .045 to 45 fg of HBV DNA, where 30 copies of the genome can be reliably detected. Samples were tested in conjunction with both positive (.448 fg/ul plasmid DNA) and negative (RPMI medium supplemented with 2 mM L-Glutamine and 10% Fetal calf serum) controls. The average IC50 and standard error of the IC50s for the triplicate plates were calculated using SAS nonlinear regression to fit data to the Hill equation for each concentration response curve. When only a single determination of an IC50 for a particular dose combination could be made, the average of the standard errors from adjacent concentrations was used to estimate the standard error. Fractional inhibitory concentrations (FIC50) were calculated for each combination and plotted using the isobologram representation (Berenbaum, M.C. (1985) The Expected Effect ofa Combination of Agents: the General Solution. J. Theor. Biol. 114, 413-431). To assess statistical significance of synergy or antagonism, an unpaired t-test was used to compare each sum of paired FIC50 values with the theoretical value of 1. P values less than 0.05 were considered statistically significant. Comparison of P values between experiments must be interpreted with great care, as the experiments utilized different test concentration ranges (or ranges useable by the isobologram method). In some cases not all concentrations tested could support calculation of an IC50, since response was inhibited to a greater extent than 50 percent of control for all doses. […]

[5] = system: HBV M552I; test: as above; assay type: cell-based, hepatitis B virus
Method: as §2

[6] = system: HBV L528M; test: as above; assay type: cell-based, hepatitis B virus
Method: as §2

[7] = system: HBV M552V; test: as above; assay type: cell-based, hepatitis B virus
Method: as §2

[8] = system: Human hepatitis B DNA polymerase which expresses lamivudine codons; details: Xiong et al. 1997, Abstract No. 1211; cited from earlier work
[9] = in vitro; assay type: cell-based; details: human; HepG2 cells; read-out: cytotoxic IC50
Method: The IC50 for PMEA was determined against wild type (WT) and lamivudine resistant HBV transiently expressed in a cell culture system as described below. HepG2 cells were transiently transfected with plasmid containing the HBV genome that had the wild type sequence or contained the following lamivudine resistant mutations in the reverse transcriptase gene; M552I, M552V, L528M, L528MM552V. […] HepG2 cells were seeded into 96-well Costar plates at 6300 cells per well in 150 µl of HepG2 media (Dulbecco's Modified Eagle Medium (DMEM), containing 10% fetal bovine serum) and were incubated overnight at 37°C. For each transfected well, 75 ng of plasmid DNA and 0.5 µl of lipofectamine (Gibco) were incubated together for 30 minutes at room temperature in 12.5 µl of OptiMem (Gibco) prior to addition of DNA/lipofectamine mixture to cells. Each well was rinsed with 150 µl of unsupplemented DMEM. […] HBV DNA levels were quantitated from media harvested from cells on day 7 using the methods described in Jansen RW, Johnson LC, Averett, DR. […] Cytotoxicity due to drug treatment was determined using the DNA stain Bisbenzimide (H33342 3HCl 4H2O; Calbiochem Company, La Jolla CA). […] Fluorescent values per well were determined with a Millipore Cytofluor 2350 fluorescent plate reader (excitation, 355 nm; emission, 460 nm; arbitrary units). […]

[10] = system: WT HBV; test: PMEA inhibition of HBV DNA production, HepG2 cells transiently transfected with HBV genome plasmid; assay type: cell-based; details: Hepatitis B virus, 168 h, WT construct, day 7, read-out: IC50 PMEA (95%Cl)
Method: as §1

SMILES	patients maintaining undetectable levels of virus [1]	IC50 [2]	IC50 [3]	IC50 ([4]; Hepatitis B virus, 168 h, L528M/ M552V construct, transfected HepG2 cells, day 7, read-out: IC50 PMEA (95%Cl))	x-fold change in IC50 ([4]; L528M/ M552V versus WT HBV)	IC50 ([5]; Hepatitis B virus, 168 h, M552I construct, transfected HepG2 cells, day 7, read-out: IC50 PMEA (95%Cl))	x-fold change in IC50 ([5]; M552I versus WT HBV)	IC50 ([6]; Hepatitis B virus, 168 h, L528M construct, transfected HepG2 cells, day 7, read-out: IC50 PMEA (95%Cl))	x-fold change in IC50 ([6]; L528M versus WT HBV)	IC50 ([7]; Hepatitis B virus, 168 h, M552V construct, transfected HepG2 cells, day 7, read-out: IC50 PMEA (95%Cl))	x-fold change in IC50 ([7]; M552V versus WT HBV)	cross-resistance to PMEA [8]	IC50 [9]	IC50 [10]
Nc1ccn([C@@H]2CS[C@H](CO)O2)c(=O)n1 (relative stereo) [lamivudine, (2R,cis)-4-amino-1-(2-hydroxymethyl-1,3-oxathiolan-5-yl)-pyrimidin-2-one]	52%	–	–	–	–	–	–	–	–	–	–	–	–	–
Nc1ncnc2c1ncn2CCOCP(=O)(O)O [PMEA, 9-[(R)-2-(phosphonomethoxy)ethyl]adenine]	–	430 nM	700 nM	1300 nM	2.5	7500 nM	14	870 nM	1.6	9800 nM	18	lack of cross-resistance	25000 to 40000 nM	530 nM
